Data as given in patent US20060069132A1, “Azolecarboxamide herbicides” (priority 2004, published 2006).

Legend:
[1] = test system: blackgrass; experiment: Test B postemergence herbicide test; type: in vivo, Alopecurus myosuroides
In short: (§1)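 Each value is a visual 0–100 response rating taken against controls 13 to 15 days after treatment in the greenhouse. Plants received formulated chemical postemergence at the 1- to 4-leaf stage or, in flooded paddy, at the 2-leaf stage.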

[2] = test system: ducksalad; experiment: Test B flooded paddy test; type: in vivo, Heteranthera limosa; conditions: 125 g ai/ha, scale 0 to 100 (0 no effect, 100 complete control)
In short: as §1

[3] = test system: wild oat; experiment: Test B postemergence herbicide test; type: in vivo, Avena fatua
In short: (§2)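 Scale 0–100: zero equals no visible effect, 100 complete control, judged by eye relative to controls. Timing: 13 to 15 days in greenhouse post-treatment. Growth stage at spraying: two leaves (paddy) or one to four leaves, 2–18 cm (postemergence).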

[4] = test system: barnyardgrass; experiment: Test B pre-/postemergence herbicide test; type: in vivo, Echinochloa crus-galli; conditions: Postemergence, scale 0 (no effect) to 100 (complete control)
In short: (§3)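 Evaluation is visual, comparing treated with control plants on a scale where 0 means no effect and 100 means full control. Treatments were preemergence, or postemergence on seedlings 2–18 cm tall, and held 13–15 days in the greenhouse.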

[5] = test system: cocklebur; experiment: Test B pre-/postemergence herbicide test; type: in vivo, Xanthium strumarium
In short: as §3

[6] = test system: Surinam grass; experiment: Test B pre-/postemergence herbicide test; type: in vivo, Urochloa decumbens
In short: (§4)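 Test chemicals in a non-phytotoxic solvent mixture with surfactant were applied preemergence to seeded species and postemergence to plants 2-18 cm tall (1- to 4-leaf stage); rice and barnyardgrass were also tested in a flooded paddy at the 2-leaf stage. Visual rating versus controls after 13-15 days in greenhouse, scale 0 (no effect) to 100 (complete control).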

[7] = test system: wheat; experiment: Test B postemergence herbicide test; type: in vivo, Triticum aestivum; set-up: key to Wheat plant response rating: 0 = no effect, 100 = complete control
In short: as §2

[8] = test system: rice; experiment: Test B flooded paddy test; type: in vivo, Oryza sativa; conditions: 125 g ai/ha, scale 0 to 100 (0 no effect, 100 complete control)
In short: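 Paddy species grown to the 2-leaf stage under flooding; blackgrass sprayed postemergence at 2–18 cm (1- to 4-leaf stage). Plants kept in a greenhouse for 13 to 15 days, then visually rated against controls on 0 (no effect) to 100 (complete control).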

[9] = test system: giant foxtail; experiment: Test B pre-/postemergence herbicide test; type: in vivo, Setaria faberi
In short: as §4

[10] = test system: velvetleaf; experiment: Test B pre-/postemergence herbicide test; type: in vivo, Abutilon theophrasti
In short: as §4

[11] = test system: small flower umbrella sedge; experiment: Test B flooded paddy test; type: in vivo, Cyperus difformis; conditions: 125 g ai/ha, scale 0 to 100 (0 no effect, 100 complete control)
In short: as §1

[12] = test system: pigweed; experiment: Test B pre-/postemergence herbicide test; type: in vivo, Amaranthus retroflexus
In short: as §4

[13] = test system: corn; experiment: Test B pre-/postemergence herbicide test; type: in vivo, Zea mays
In short: as §4

[14] = test system: large crabgrass; experiment: Test B pre-/postemergence herbicide test; type: in vivo, Digitaria sanguinalis
In short: as §4

[15] = test system: lambsquarters; experiment: Test B pre-/postemergence herbicide test; type: in vivo, Chenopodium album
In short: as §4

[16] = test system: barnyardgrass; experiment: Test B flooded paddy test; type: in vivo, Echinochloa crus-galli; conditions: 125 g ai/ha, scale 0 to 100 (0 no effect, 100 complete control)
In short: as §1

[17] = test system: morningglory; experiment: Test B pre-/postemergence herbicide test; type: in vivo, Ipomoea coccinea
In short: as §3

[18] = Postemergence, 500 g ai/ha, scale 0 (no effect) to 100 (complete control)
[19] = postemergence, 125 g ai/ha, scale 0 to 100

CC(C)(C)n1nc(Br)c(C(=O)Nc2cccc(C(=O)NC3CC3)c2)n1 [Compound 435]
Blackgrass plant response rating [1, 18]: 30
Blackgrass plant response rating [1, 19]: 20
Ducksalad plant response rating [2]: 0
Oat, Wild plant response rating [3, 18]: 60
Oat, Wild plant response rating [3, 19]: 50
Barnyardgrass plant response rating ([4]; 125 g ai/ha): 10
Barnyardgrass plant response rating ([4]; 500 g ai/ha): 10
Cocklebur plant response rating [5, 18]: 20
Cocklebur plant response rating [5, 19]: 20
Surinam Grass plant response rating [6, 18]: 30
Surinam Grass plant response rating [6, 19]: 20
Wheat plant response rating ([7]; 500 g ai/ha, scale 0 to 100, 0 no effect, 100 complete control, preemergence): 10
Wheat plant response rating [7, 18]: 60
Wheat plant response rating [7, 19]: 20
Rice plant response rating [8]: 0
Foxtail, Giant plant response rating [9, 18]: 30
Foxtail, Giant plant response rating [9, 19]: 20
Velvetleaf plant response rating [10, 18]: 20
Velvetleaf plant response rating [10, 19]: 10
Sedge, Umbrella plant response rating [11]: 0
Pigweed plant response rating [12, 18]: 60
Pigweed plant response rating [12, 19]: 40
Corn plant response rating [13, 18]: 30
Corn plant response rating [13, 19]: 20
Crabgrass, Large plant response rating [14, 18]: 30
Crabgrass, Large plant response rating [14, 19]: 10
Lambsquarters plant response rating [15, 18]: 60
Lambsquarters plant response rating [15, 19]: 50
Barnyardgrass plant response rating [16]: 0
Morningglory plant response rating [17, 18]: 90
Morningglory plant response rating [17, 19]: 70
